Results published in ChEMBL document CHEMBL1132830, “Serotonin transporter inhibitors: synthesis and binding potency of 2'-methyl- and 3'-methyl-6-nitroquipazine” (Bioorg Med Chem Lett, 2000).

Key:
[1] = Equipotent molar ratio of compound to that of standard (compound 1) was evaluated
[2] = biological target: Sodium-dependent serotonin transporter (Rattus norvegicus, UniProt P31652); experiment: In vitro radioligand [3H]-paroxetine from rat cortical Serotonin transporter
Sodium-dependent serotonin transporter, sequence (P31652 whole entry): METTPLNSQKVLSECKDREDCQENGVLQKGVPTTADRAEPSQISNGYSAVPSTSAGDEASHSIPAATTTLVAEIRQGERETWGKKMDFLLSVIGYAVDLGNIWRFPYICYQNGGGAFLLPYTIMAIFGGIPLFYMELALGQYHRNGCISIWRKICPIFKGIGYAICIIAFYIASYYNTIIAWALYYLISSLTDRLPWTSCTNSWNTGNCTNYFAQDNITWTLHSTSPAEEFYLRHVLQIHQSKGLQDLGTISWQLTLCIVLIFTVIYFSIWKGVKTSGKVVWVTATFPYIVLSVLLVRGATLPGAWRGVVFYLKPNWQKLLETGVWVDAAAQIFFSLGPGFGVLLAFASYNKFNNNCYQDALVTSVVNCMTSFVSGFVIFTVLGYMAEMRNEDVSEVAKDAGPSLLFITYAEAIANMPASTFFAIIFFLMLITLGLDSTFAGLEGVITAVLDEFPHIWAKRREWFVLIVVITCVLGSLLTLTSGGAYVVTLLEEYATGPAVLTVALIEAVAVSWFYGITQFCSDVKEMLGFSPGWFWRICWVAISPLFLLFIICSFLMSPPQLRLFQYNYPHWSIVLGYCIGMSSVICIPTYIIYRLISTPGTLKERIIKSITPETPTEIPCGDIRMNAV

Row | SMILES | Ratio [1] | Ki [2] [nM]
1 | O=[N+]([O-])c1ccc2nc(N3CCNCC3)ccc2c1 [6-NITROQUIPAZINE] | 1 | 0.163
2 | O=[N+]([O-])c1ccc2nc(N3CCNCC3)ccc2c1I |  | 0.19
3 | CC1CNCCN1c1ccc2cc([N+](=O)[O-])ccc2n1 (configuration not stated) | 0.49 | 0.081
4 | CC1CN(c2ccc3cc([N+](=O)[O-])ccc3n2)CCN1 (configuration not stated) | 28 | 4.56
